Legend:
Assay in all cases: PELDOR (EPR) distance distributions
[1] = tested on: C30C47 (RNA, aptamer, Çm (rigid nitroxide spin-label cytidine analogue) at 30 and 47) GGACGACUGAACCGAAAGGUUCUUGGCUGCUUCGGCAGAGGUACGUCC; conditions: 130 mM glutamate buffer, pH 7.5; frozen solution; qualitative; small fraction of free aptamer remains
[2] = tested on: C12C30 (RNA, aptamer, Çm (rigid nitroxide spin-label cytidine analogue) at 12 and 30) GGACGACUGAACCGAAAGGUUCUUGGCUGCUUCGGCAGAGGUACGUCC; conditions: 130 mM glutamate buffer, pH 7.5; frozen solution; qualitative
[3] = tested on: C12C47 (RNA, aptamer, Çm (rigid nitroxide spin-label cytidine analogue) at 12 and 47) GGACGACUGAACCGAAAGGUUCUUGGCUGCUUCGGCAGAGGUACGUCC; conditions: 130 mM glutamate buffer, pH 7.5; frozen solution; qualitative

- binding [1]: yes
- binding [2]: yes
- binding [3]: yes
Compound: CN(C)c1ccc2c(-c3ccc(C(=O)O)cc3C(=O)[O-])c3ccc(=[N+](C)C)cc-3oc2c1
